The supplement of paper PMC13207355

Legend:
Settings in all cases: exposure time: 72 h
E13 [1] = patient-derived glioblastoma stem cells of classical subtype; assay: surviving fraction (nuclei count normalised to DMSO); higher = more cells surviving (less toxic)
E21 [2] = patient-derived glioblastoma stem cells of mesenchymal subtype; assay: as above
E28 [3] = patient-derived glioblastoma stem cells of classical subtype; assay: as above
E31 [4] = patient-derived glioblastoma stem cells of proneural subtype; assay: as above
E34 [5] = patient-derived glioblastoma stem cells of proneural subtype; assay: as above
E57 [6] = patient-derived glioblastoma stem cells of mesenchymal subtype; assay: as above
FT3469 [7] = normal neural stem cell line; assay: as above
E13 [8] = assay: phenotypic distance (Euclidean, principal components) from DMSO controls (arbitrary units); higher = stronger morphological change
E21 [9] = assay: as above
E28 [10] = assay: as above
E31 [11] = assay: as above
E34 [12] = assay: as above
E57 [13] = assay: as above
FT3469 [14] = assay: as above
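Throughout, for phenotypic distance (Euclidean, principal components) from DMSO controls: cell Painting imaging in 384-well plates, CellProfiler features reduced to at least 20 principal components, Euclidean distance versus same-plate DMSO vehicle wells (0.1% v/v), median over six images per well.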
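Throughout, for surviving fraction (nuclei count normalised to DMSO): nuclei counted by high-content imaging of Hoechst-stained cells in laminin-coated 384-well plates, relative to 0.1% DMSO vehicle wells, with staurosporine as cell-death control.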

Cc1[nH]nc(C(F)(F)F)c1Cc1sc2c(c1C(=O)N1C[C@](C)(O)CO1)c(=O)n(C)c(=O)n2C(C)C [AZD3965]
Settings	phenotypic distance	surviving fraction
E13 [1], 4.1 nM	–	0.892
E13 [1], 4.11523 nM	–	0.874
E13 [1], 12.3 nM	–	0.878
E13 [1], 12.34567901 nM	–	0.853
E13 [1], 37 nM	–	0.902
E13 [1], 37.037 nM	–	0.888
E13 [1], 111.1 nM	–	0.875
E13 [1], 111.1111111 nM	–	0.852
E13 [1], 333.3 nM	–	0.798
E13 [1], 333.333 nM	–	0.795
E13 [1], 1000 nM	–	0.8872
E13 [1], 3000 nM	–	0.893
E13 [8], 4.1 nM	2.38	–
E13 [8], 4.11523 nM	3.36	–
E13 [8], 12.3 nM	1.38	–
E13 [8], 12.34567901 nM	1.25	–
E13 [8], 37 nM	1.12	–
E13 [8], 37.037 nM	1.28	–
E13 [8], 111.1 nM	1.14	–
E13 [8], 111.1111111 nM	1.42	–
E13 [8], 333.3 nM	1.61	–
E13 [8], 333.333 nM	1.44	–
E13 [8], 1000 nM	1.42	–
E13 [8], 3000 nM	1.49	–
E21 [2], 4.1 nM	–	0.918
E21 [2], 4.11523 nM	–	0.909
E21 [2], 12.3 nM	–	0.974
E21 [2], 12.34567901 nM	–	0.942
E21 [2], 37 nM	–	1.01
E21 [2], 37.037 nM	–	0.985
E21 [2], 111.1 nM	–	0.876
E21 [2], 111.1111111 nM	–	0.994
E21 [2], 333.3 nM	–	0.97
E21 [2], 333.333 nM	–	0.874
E21 [2], 1000 nM	–	0.975
E21 [2], 3000 nM	–	1.03
E21 [9], 4.1 nM	0.524	–
E21 [9], 4.11523 nM	0.56	–
E21 [9], 12.3 nM	0.38	–
E21 [9], 12.34567901 nM	0.473	–
E21 [9], 37 nM	0.579	–
E21 [9], 37.037 nM	0.608	–
E21 [9], 111.1 nM	3	–
E21 [9], 111.1111111 nM	0.601	–
E21 [9], 333.3 nM	0.814	–
E21 [9], 333.333 nM	0.596	–
E21 [9], 1000 nM	0.438	–
E21 [9], 3000 nM	0.509	–
E28 [3], 4.1 nM	–	0.719
E28 [3], 4.11523 nM	–	0.606
E28 [3], 12.3 nM	–	0.623
E28 [3], 12.34567901 nM	–	0.725
E28 [3], 37 nM	–	0.66
E28 [3], 37.037 nM	–	0.664
E28 [3], 111.1 nM	–	0.585
E28 [3], 111.1111111 nM	–	0.599
E28 [3], 333.3 nM	–	0.695
E28 [3], 333.333 nM	–	0.602
E28 [3], 1000 nM	–	0.645
E28 [3], 3000 nM	–	0.609
E28 [10], 4.1 nM	1.93	–
E28 [10], 4.11523 nM	2.44	–
E28 [10], 12.3 nM	2.03	–
E28 [10], 12.34567901 nM	2.3	–
E28 [10], 37 nM	2.12	–
E28 [10], 37.037 nM	2.05	–
E28 [10], 111.1 nM	2.52	–
E28 [10], 111.1111111 nM	2.75	–
E28 [10], 333.3 nM	2.16	–
E28 [10], 333.333 nM	1.86	–
E28 [10], 1000 nM	3.17	–
E28 [10], 3000 nM	2.52	–
E31 [4], 4.1 nM	–	1.02
E31 [4], 4.11523 nM	–	0.885
E31 [4], 12.3 nM	–	1.01
E31 [4], 12.34567901 nM	–	1.03
E31 [4], 37 nM	–	1.11
E31 [4], 37.037 nM	–	0.935
E31 [4], 111.1 nM	–	1.02
E31 [4], 111.1111111 nM	–	1.26
E31 [4], 333.3 nM	–	1.08
E31 [4], 333.333 nM	–	0.948
E31 [4], 1000 nM	–	1.06
E31 [4], 3000 nM	–	0.9527
E31 [11], 4.1 nM	1.24	–
E31 [11], 4.11523 nM	1.57	–
E31 [11], 12.3 nM	1.17	–
E31 [11], 12.34567901 nM	1.51	–
E31 [11], 37 nM	1.23	–
E31 [11], 37.037 nM	1.3	–
E31 [11], 111.1 nM	1.12	–
E31 [11], 111.1111111 nM	1.4	–
E31 [11], 333.3 nM	1.58	–
E31 [11], 333.333 nM	1.36	–
E31 [11], 1000 nM	1.41	–
E31 [11], 3000 nM	1.36	–
E34 [5], 4.1 nM	–	0.782
E34 [5], 4.11523 nM	–	0.704
E34 [5], 12.3 nM	–	0.677
E34 [5], 12.34567901 nM	–	0.748
E34 [5], 37 nM	–	0.775
E34 [5], 37.037 nM	–	0.724
E34 [5], 111.1 nM	–	0.71
E34 [5], 111.1111111 nM	–	0.849
E34 [5], 333.3 nM	–	0.713
E34 [5], 333.333 nM	–	0.686
E34 [5], 1000 nM	–	0.7
E34 [5], 3000 nM	–	0.718
E34 [12], 4.1 nM	1.15	–
E34 [12], 4.11523 nM	1.69	–
E34 [12], 12.3 nM	1.33	–
E34 [12], 12.34567901 nM	1.5	–
E34 [12], 37 nM	1.42	–
E34 [12], 37.037 nM	1.59	–
E34 [12], 111.1 nM	1.57	–
E34 [12], 111.1111111 nM	1.79	–
E34 [12], 333.3 nM	1.47	–
E34 [12], 333.333 nM	1.47	–
E34 [12], 1000 nM	1.21	–
E34 [12], 3000 nM	1.35	–
E57 [6], 4.1 nM	–	0.905
E57 [6], 4.11523 nM	–	0.97
E57 [6], 12.3 nM	–	0.959
E57 [6], 12.34567901 nM	–	0.899
E57 [6], 37 nM	–	0.94
E57 [6], 37.037 nM	–	0.871
E57 [6], 111.1 nM	–	0.932
E57 [6], 111.1111111 nM	–	0.96
E57 [6], 333.3 nM	–	0.917
E57 [6], 333.333 nM	–	0.898
E57 [6], 1000 nM	–	0.922
E57 [6], 3000 nM	–	0.917
E57 [13], 4.1 nM	1.39	–
E57 [13], 4.11523 nM	1.81	–
E57 [13], 12.3 nM	1.46	–
E57 [13], 12.34567901 nM	1.78	–
E57 [13], 37 nM	1.94	–
E57 [13], 37.037 nM	2.19	–
E57 [13], 111.1 nM	1.74	–
E57 [13], 111.1111111 nM	1.87	–
E57 [13], 333.3 nM	1.65	–
E57 [13], 333.333 nM	1.79	–
E57 [13], 1000 nM	1.74	–
E57 [13], 3000 nM	1.93	–
FT3469 [7], 4.1 nM	–	0.911
FT3469 [7], 4.11523 nM	–	0.788
FT3469 [7], 12.3 nM	–	0.929
FT3469 [7], 12.34567901 nM	–	0.932
FT3469 [7], 37 nM	–	0.838
FT3469 [7], 37.037 nM	–	0.903
FT3469 [7], 111.1 nM	–	0.873
FT3469 [7], 111.1111111 nM	–	1.07
FT3469 [7], 333.3 nM	–	1.05
FT3469 [7], 333.333 nM	–	0.841
FT3469 [7], 1000 nM	–	0.948
FT3469 [7], 3000 nM	–	0.899
FT3469 [14], 4.1 nM	2.64	–
FT3469 [14], 4.11523 nM	1.35	–
FT3469 [14], 12.3 nM	0.859	–
FT3469 [14], 12.34567901 nM	1.19	–
FT3469 [14], 37 nM	0.806	–
FT3469 [14], 37.037 nM	1.13	–
FT3469 [14], 111.1 nM	0.75	–
FT3469 [14], 111.1111111 nM	1.11	–
FT3469 [14], 333.3 nM	1.33	–
FT3469 [14], 333.333 nM	1.16	–
FT3469 [14], 1000 nM	0.712	–
FT3469 [14], 3000 nM	0.976	–
